Laboratory results reported in US20100323990A1, “SHIP 1 MODULATOR PRODRUGS” (THE UNIVERSITY OF BRITISH COLUMBIA, priority 2006, published 2010).

Experiments:
SHIP enzyme = test: In vitro SHIP enzyme assay (Assay 1), phosphate release by Malachite Green; format: biochemical; conditions: 10 ng enzyme/well, 100 μM inositol-1,3,4,5-tetrakisphosphate; also: key: a ‘+’ indicates a positive result for desired activity; a ‘−’ indicates a negative result for desired activity
Description: (§1) Assay 1) In vitro testing in a SHIP enzyme assay. Test compounds were dissolved in a suitable solvent (e.g. EtOH, DMSO and others) and diluted into aqueous buffer (20 mM Tris HCl, pH 7.5 and 10 mM MgCl2). SHIP enzyme assays were performed in 96-well microtitre plates with 10 ng of enzyme/well in a total volume of 25 μL of 20 mM Tris HCl, pH 7.5 and 10 mM MgCl2. SHIP enzyme was incubated with test extracts (provided in solvent) or vehicle for 15 min at 23° C. before the addition of 100 μM inositol-1,3,4,5-tetrakisphosphate (Echelon Biosciences Inc, Salt Lake City, Utah). After 20 min at 37° C. and the amount of inorganic phosphate released assessed by the addition of Malachite Green reagent and absorbance measurement at 650 nm. Assay 2) Macrophage TNF-α production. J774.1a macrophage cells were treated with 10 μg/mL of test compound dissolved in solvent (e.g. cyclodextran) for 40 minutes prior to the addition of 100 ng/mL LPS. Culture supernatants were collected after 2 hr and 5 hr for TNF-α determination by ELISA. Assay 3) Macrophage TNF-α NO assay. J774.1a macrophage cells were treated with 10 μg/ml of test compound dissolved in solvent for 40 minutes prior to the addition of LPS. Culture supernatants were collected after 24 hr. for determination of NO concentration using the Griess reagent. Assay 4) Stimulation of mast cells by FcεRI crosslinking. Mast cells were pre-loaded overnight in BMMC medium lacking IL-3 with 0.1 μg/ml anti-DNP IgE (SPE-7, Sigma, Oakville, Ont). For calcium flux measurements, cells were incubated with 2 μM fura 2-acetoxymethyl ester (Molecular Probes, Eugene, Oreg.) in Tyrode's buffer at 23° C. for 45 min. Cells were then washed and incubated in the presence of the test compound 30 min prior to stimulation with the indicated concentration of DNP-human serum albumin (DNP-HSA). Calcium influx was monitored by spectrofluorometry as described previously. For analysis of intracellular signaling, cells were pre-loaded with anti-DNP IgE as above, pre-treated with the test compound for 30 min at 37° C. and stimulated with 20 ng/ml DNP-HSA for 5 min. Total cell lysates were then prepared and analyzed for phospho-PKB, phospho-p38^MAPK, phospho-MAPK, Grb-2 (Cell Signalling, Mississauga, Ont) and SHIP^6 by immunoblot analysis. Assay 5) Mouse acute cutaneous anaphylaxis model. 6-8 week old CD1 mice (University of British Columbia Animal Facility, Vancouver, BC) were sensitized to the hapten DNP by cutaneous application of 25 μL of 0.5% dinitrofluorobenzene (DNFB) (Sigma, Oakville, Ont) in acetone to the shaved abdomen of mice for two consecutive days. 24 hrs later, test substances (dissolved in 10 μL of 1:2 DMSO:MeOH) were painted on the right ear while the left ear received vehicle control. 30 min after drug application, DNFB was applied to both ears to induce mast cell degranulation. A 6 mm punch was taken from the ear and immediately frozen on dry ice for subsequent determination of neutrophil myeloperoxidase (MPO) activity. Assay 6) Mouse endotoxemia model. 6-8 week old C57B16 mice (VCHRI Mammalian Model of Human Disease Core Facility, Vancouver, BC) were orally administered the test compound 30 min prior to an IP injection of 2 mg/kg of LPS (E. Coli serotype 0111:B4, Sigma, Oakville, Ont). Blood was drawn 2 hrs later for determination of plasma TNFα by ELISA. Assay 7) In vitro Mulitple Myeloma (MM) assay. The ability of SHIP activators to reduce tumor cell survival was assessed in MM cell lines treated with the test compound. The lines OPM1, OPM2, MM.1S and RPMI 8226 were plated at a density of 1×10^5 cells/mL in 200 μL of medium with various concentrations of the test compound, and viable cell numbers were determined on day 3 and day 5 by trypan blue exclusion. The lines RPMI 8226 and U266 were plated at a density of 1×10^6 cells/mL in 250 μL of medium with various concentrations of the test compound. At day 4, the medium of each culture was replaced by fresh medium containing the same concentration of test compound. […]

J774.1a macrophage cells [1] = test: Macrophage TNF-α NO assay (Assay 3), Griess reagent; format: cell-based; conditions: 10 μg/ml test compound, LPS, supernatants after 24 hr; also: key: a ‘+’ indicates a positive result for desired activity; a ‘−’ indicates a negative result for desired activity
Description: as §1

J774.1a macrophage cells [2] = test: Macrophage TNF-α production (Assay 2); format: cell-based; conditions: 10 μg/mL test compound, 100 ng/mL LPS, supernatants after 2 hr and 5 hr; also: key: a ‘+’ indicates a positive result for desired activity; a ‘−’ indicates a negative result for desired activity
Description: as §1

MM cell lines = test: In vitro Multiple Myeloma (MM) assay (Assay 7); format: cell-based; conditions: viable cell number by trypan blue; [3H]-thymidine; also: key: a ‘+’ indicates a positive result for desired activity; a ‘−’ indicates a negative result for desired activity
Description: as §1

plasma TNFα = test: Mouse endotoxemia model (Assay 6), plasma TNFα by ELISA; format: in vivo, mice; conditions: oral, 30 min prior to IP 2 mg/kg LPS, plasma TNFα 2 hrs later
Description: as §1, with “6-8 week old C57B16 mice (VCHRI Mammalian Model of Human Disease Core Facility, Vancouver, BC) were orally administered the test compound 30 min prior to an IP injection of 2 mg/kg of LPS (E. Coli serotype 0111:B4, Sigma, Oakville, Ont). Blood was drawn 2 hrs later for determination of plasma TNFα by ELISA. Assay 7) In vitro Mulitple Myeloma (MM) assay.” left out, “exclusion.” for “exclusion. The lines RPMI 8226 and U266 were plated at a density of 1×10^6 cells/mL in 250 μL of medium with various concentrations of the test compound. At day 4, the medium of each culture was replaced by fresh medium containing the same concentration of test compound.”

Mast cells = test: Stimulation of mast cells by FcεRI crosslinking (Assay 4); format: cell-based; conditions: test compound 30 min prior to DNP-HSA
Description: as §1, with “6-8 week old CD1 mice (University of British Columbia Animal Facility, Vancouver, BC) were sensitized to the hapten DNP by cutaneous application of 25 μL of 0.5% dinitrofluorobenzene (DNFB) (Sigma, Oakville, Ont) in acetone to the shaved abdomen of mice for two consecutive days. 24 hrs later, test substances (dissolved in 10 μL of 1:2 DMSO:MeOH) were painted on the right ear while the left ear received vehicle control. 30 min after drug application, DNFB was applied to both ears to induce mast cell degranulation. A 6 mm punch was taken from the ear and immediately frozen on dry ice for subsequent determination of neutrophil myeloperoxidase (MPO) activity. Assay 6) Mouse endotoxemia model. 6-8 week old C57B16 mice (VCHRI Mammalian Model of Human Disease Core Facility, Vancouver, BC) were orally administered the test compound 30 min prior to an IP injection of 2 mg/kg of LPS (E. Coli serotype 0111:B4, Sigma, Oakville, Ont). Blood was drawn 2 hrs later for determination of plasma TNFα by ELISA. Assay 7) In vitro Mulitple Myeloma (MM) assay.” left out, “exclusion.” for “exclusion. The lines RPMI 8226 and U266 were plated at a density of 1×10^6 cells/mL in 250 μL of medium with various concentrations of the test compound. At day 4, the medium of each culture was replaced by fresh medium containing the same concentration of test compound.”

SMILES | Assay 1: SHIP enzyme assay, desired activity (SHIP enzyme) | Assay 3: Macrophage NO assay, desired activity (J774.1a macrophage cells [1]) | Assay 2: Macrophage TNF-α production, desired activity (J774.1a macrophage cells [2]) | Assay 7: In vitro Multiple Myeloma (MM) assay, desired activity (MM cell lines) | Assay 6: Mouse endotoxemia model, desired activity (plasma TNFα) | Assay 4: Stimulation of mast cells by FcεRI crosslinking, desired activity (Mast cells)
COC(=O)c1cc(O)c(O)c2c1[C@]1(C)CCC3C(C)(C)CCC[C@]3(C)[C@H]1C2 (stereo partly drawn) | + | + |  |  |  | 
CC1(C)CCC[C@@]2(C)C1CC[C@@]1(C)c3c(C(=O)O)cc(O)c(O)c3C[C@@H]12 (stereo partly drawn) | + | + | + |  |  | 
COC(=O)c1cc(O)c(O)c2c1[C@]1(C)CCC3C(C)(C)CCC[C@]3(C)[C@@H]1C2 (stereo partly drawn) | + | + |  |  |  | 
COC(=O)c1cc(O)c(O)c2c1[C@@]1(C)CCC3C(C)(C)CCC[C@]3(C)[C@H]1C2 (stereo partly drawn) | + | + |  |  |  | 
Cc1cc(O)c(O)c2c1[C@@]1(C)CCC3C(C)(C)CCC[C@]3(C)[C@H]1C2 (stereo partly drawn) | + |  |  |  |  | 
CCc1cc(O)c(O)c2c1[C@]1(C)CCC3C(C)(C)CCC[C@]3(C)[C@H]1C2 (stereo partly drawn) [Compound 18A] | + | + | + |  |  | 
Cc1cc2c(cc1O)C[C@@H]1[C@@]3(C)CCCC(C)(C)[C@@H]3CC[C@@]21C [Compound 101] |  | + | + | + |  | 
CC(=O)Oc1cc(C)c2c(c1)C[C@H]1[C@@]2(C)CCC2C(C)(C)CCC[C@@]21C (stereo partly drawn) [Compound 102] |  | + | + |  |  | 
Cc1cc(OC(=O)C(N)CCCNC(=N)N)cc2c1[C@]1(C)CCC3C(C)(C)CCC[C@]3(C)[C@H]1C2 (stereo partly drawn) [Compound 105] |  | + | + |  |  | 
Cc1cc(OP(=O)(O)O)cc2c1[C@]1(C)CCC3C(C)(C)CCC[C@]3(C)[C@H]1C2 (stereo partly drawn) [Compound 109] |  | + | − | + |  | 
Cc1cc(OC(=O)C(CC(=O)O)NC(=O)CCC(=O)O)cc2c1[C@]1(C)CCC3C(C)(C)CCC[C@]3(C)[C@H]1C2 (stereo partly drawn) [Compound 114] |  | + | + |  | + | 
CC1(C)CCC[C@]2(C)[C@H]3Cc4cc(O)cc(O)c4[C@]3(C)CC[C@@H]12 [Compound 115] |  |  |  | + |  | 
COc1cc(O)cc2c1[C@]1(C)CC[C@H]3C(C)(C)CCC[C@]3(C)[C@H]1C2 [Compound 117] |  | + | + | + |  | 
COc1ccc2c(c1O)C[C@@H]1[C@@]3(C)CCCC(C)(C)[C@@H]3CC[C@@]21C [Compound 118] |  | + | − | + |  | 
CC1(C)CCC[C@]2(C)[C@H]3Cc4cc(O)ccc4[C@]3(C)CC[C@@H]12 [Compound 121] |  | + | + | + |  | 
Cc1cc(O)c2c(c1)C[C@@H]1[C@@]3(C)CCCC(C)(C)[C@@H]3CC[C@@]21C [Compound 122] |  | + | − | + |  | 
Cc1cc(OC(=O)C(N)Cc2cnc[nH]2)cc2c1[C@]1(C)CCC3C(C)(C)CCC[C@]3(C)[C@H]1C2 (stereo partly drawn) [Compound 123] |  | + | + |  |  | 
Cc1cc(O)cc2c1[C@]1(C)CCC3C(C)(C)CCC[C@]3(C)[C@@H]1C2 (stereo partly drawn) [Compound 124] |  | + | + | + |  | +
Cc1cc(O)cc2c1[C@@]1(C)CCC3C(C)(C)CCC[C@]3(C)[C@H]1C2 (stereo partly drawn) [Compound 125] |  | + | + | + |  | +
COc1cc(C)c2c(c1O)C[C@@H]1[C@@]3(C)CCCC(C)(C)[C@@H]3CC[C@@]21C [Compound 129] |  | + | − |  |  | 
